In patent US20080039376A1, “Use of Cyclic Anabaenopeptin-type Peptides for the Treatment of a Condition Wherein Inhibition of Carboxypeptidase U is Beneficial, Novel Anabaenopeptin Derivatives and Intermediates Thereof” (A[…], priority 2003, published 2008):
*1 amine or outer side, *2 acyl side, *3 side chain or, on linkers, in order; H or OH if unused. Where a SMILES comes first, the peptide text is derived from it. Bridges are numbered along the chain shown (N, C = ends). [ ]: non-standard residue; d: D form. ξ: configuration not given here. X2 = CN([C@@H](Cc1c[nH]c2cc(Cl)c(O)cc12)C(=O)[*:2])[*:1]; X1 = O=C([C@H](Cc1c[nH]c2cc(Cl)c(O)cc12)N[*:1])[*:2]; Ile(3ξ) = CCC(C)[C@H](N)C(=O)O; NMeL = CN[C@@H](CC(C)C)C(=O)O; CO = O=C([*:1])[*:2]

Target: T1, carboxypeptidase U (Homo sapiens, UniProt Q96IY4)
T1 sequence (Q96IY4 115-423): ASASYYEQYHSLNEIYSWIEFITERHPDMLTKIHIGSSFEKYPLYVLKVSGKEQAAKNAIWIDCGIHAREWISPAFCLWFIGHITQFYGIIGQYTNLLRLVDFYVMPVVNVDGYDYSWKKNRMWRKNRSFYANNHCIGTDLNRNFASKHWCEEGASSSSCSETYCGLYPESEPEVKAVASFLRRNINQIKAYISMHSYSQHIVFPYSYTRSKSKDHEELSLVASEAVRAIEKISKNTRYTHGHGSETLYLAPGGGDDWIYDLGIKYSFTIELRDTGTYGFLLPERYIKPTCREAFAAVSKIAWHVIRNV
Test: carboxypeptidase U inhibition assay (Hendriks et al., Clin. Chem. 1985), substrate concentration 4 mM
Format: biochemical
Conditions: substrate concentration of 4 mM
Method: The inhibiting effect of the compounds of the present invention was estimated using the assay described in: Dirk Hendriks, Simon Scharpé and Marc van Sande, Clinical Chemistry, 31, 1936-1939 (1985); and Wei Wang, Dirk F. Hendriks, Simon S. Scharpé, The Journal of Biological Chemistry, 269, 15937-15944 (1994), using a substrate concentration of 4 mM.
The activities of certain Examples in the assay described in: Dirk Hendriks, Simon Sharpé and Marc van Sande, Clinical Chemistry, 31, 1936-1939 (1985), using a substrate concentration of 4 mM, are presented in Table I below.

Compound | IC50 [nM]
CCC(C)[C@H](NC(=O)N[C@@H]1CCCCNC(=O)[C@H](Cc2ccccc2)NC(=O)[C@H](Cc2c[nH]c3cc(Cl)c(O)cc23)N(C)C(=O)[C@H](CC(C)C)NC(=O)[C@H](C(C)CC)NC1=O)C(=O)O (some centres unmarked) [Compound 8] ({Ile(3ξ)-CO}-[dK][Ile(3ξ)]L[X2]F; lactam 1-C) | 2500
CC(C)C[C@@H]1NC(=O)[C@H](C)NC(=O)[C@H](NC(=O)N[C@@H](CCCNC(=N)N)C(=O)O)CCCCNC(=O)[C@H](Cc2c[nH]c3cc(Cl)c(O)cc23)NC(=O)[C@H](CC(C)C)N(C)C1=O [Compound 2] ({Arg-CO}-[dK]AL[NMeL][X1]; lactam 1-C) | 100
